≈ marks a conversion by molar mass, not a printed value. One block for each molecule: values may come before it.
Columns and labels:
Dipeptidyl peptidase 8 = Dipeptidyl peptidase 8 (Homo sapiens, UniProt Q6V1X1); test: Inhibition of human recombinant DPP8
Dipeptidyl peptidase 2 = Dipeptidyl peptidase 2 (Homo sapiens, UniProt Q9UHL4); test: Inhibition of human recombinant DPP2
hERG (KCNH2) = hERG (KCNH2) (Homo sapiens, UniProt Q12809); test: Displacement of [3H]dofetilide from human ERG expressed in HEK293 cells at 10 uM
hERG (KCNH2), sequence (Q12809 whole entry): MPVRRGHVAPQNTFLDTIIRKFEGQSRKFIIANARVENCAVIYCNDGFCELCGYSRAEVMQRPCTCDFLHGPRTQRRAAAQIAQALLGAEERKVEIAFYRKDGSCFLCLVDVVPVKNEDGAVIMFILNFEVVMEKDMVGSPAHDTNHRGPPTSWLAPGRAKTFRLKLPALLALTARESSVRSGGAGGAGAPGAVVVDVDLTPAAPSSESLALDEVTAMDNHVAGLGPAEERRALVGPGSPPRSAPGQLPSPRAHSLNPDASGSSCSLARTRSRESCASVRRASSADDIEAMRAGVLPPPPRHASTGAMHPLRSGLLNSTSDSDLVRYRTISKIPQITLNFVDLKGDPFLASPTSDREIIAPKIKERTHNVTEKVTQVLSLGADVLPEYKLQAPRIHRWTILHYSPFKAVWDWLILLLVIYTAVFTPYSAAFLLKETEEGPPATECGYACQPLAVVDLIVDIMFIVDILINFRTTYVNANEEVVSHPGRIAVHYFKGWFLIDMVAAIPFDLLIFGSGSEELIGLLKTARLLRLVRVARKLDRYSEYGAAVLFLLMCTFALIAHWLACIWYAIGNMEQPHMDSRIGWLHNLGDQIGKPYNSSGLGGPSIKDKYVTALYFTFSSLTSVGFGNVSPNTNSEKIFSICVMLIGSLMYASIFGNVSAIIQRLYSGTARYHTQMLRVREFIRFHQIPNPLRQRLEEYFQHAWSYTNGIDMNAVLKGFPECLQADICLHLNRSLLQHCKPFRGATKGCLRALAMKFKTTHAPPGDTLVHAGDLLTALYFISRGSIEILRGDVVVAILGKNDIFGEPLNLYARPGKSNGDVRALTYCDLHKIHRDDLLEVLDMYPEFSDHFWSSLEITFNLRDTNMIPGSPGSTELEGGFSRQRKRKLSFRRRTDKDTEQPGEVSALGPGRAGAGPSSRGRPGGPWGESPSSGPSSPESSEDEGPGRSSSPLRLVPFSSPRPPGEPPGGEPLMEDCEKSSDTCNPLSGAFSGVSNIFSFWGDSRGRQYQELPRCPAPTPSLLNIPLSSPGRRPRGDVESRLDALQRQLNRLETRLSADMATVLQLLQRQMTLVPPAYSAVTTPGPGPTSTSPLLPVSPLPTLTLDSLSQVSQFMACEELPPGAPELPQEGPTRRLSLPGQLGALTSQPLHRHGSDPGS

[1] = Apparent permeability from apical to basolateral side in MDCK cells; conditions: dog
[2] = Apparent permeability from basolateral to apical side in MDCK cells; conditions: dog
Cytochrome P450 2C19 = Cytochrome P450 2C19 (Homo sapiens, UniProt P33261); test: Inhibition of CYP2C19; type: ADME
Cytochrome P450 2C19, sequence (P33261 whole entry): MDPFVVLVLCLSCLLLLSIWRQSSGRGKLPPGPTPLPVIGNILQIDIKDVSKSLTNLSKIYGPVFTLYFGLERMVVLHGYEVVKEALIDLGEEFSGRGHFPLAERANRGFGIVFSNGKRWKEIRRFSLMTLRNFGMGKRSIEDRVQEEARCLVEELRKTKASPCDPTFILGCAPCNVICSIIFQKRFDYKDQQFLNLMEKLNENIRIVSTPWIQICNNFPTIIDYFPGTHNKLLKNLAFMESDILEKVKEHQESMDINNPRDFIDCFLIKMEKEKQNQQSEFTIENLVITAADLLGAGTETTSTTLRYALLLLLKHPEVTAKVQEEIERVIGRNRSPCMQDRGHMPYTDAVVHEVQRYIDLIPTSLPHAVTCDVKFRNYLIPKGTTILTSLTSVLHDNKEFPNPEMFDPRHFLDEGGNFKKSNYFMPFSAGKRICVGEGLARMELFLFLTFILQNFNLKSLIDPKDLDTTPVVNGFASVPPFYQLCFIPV

[3] = Clearance in cynomolgus monkey plasma at 1 mg/kg, iv and 1 mg/kg, po; type: ADME, organism-based, Macaca fascicularis
Cytochrome P450 2C9 = Cytochrome P450 2C9 (Homo sapiens, UniProt P11712); test: Inhibition of CYP2C9; type: ADME
Cytochrome P450 2C9, sequence (P11712 whole entry): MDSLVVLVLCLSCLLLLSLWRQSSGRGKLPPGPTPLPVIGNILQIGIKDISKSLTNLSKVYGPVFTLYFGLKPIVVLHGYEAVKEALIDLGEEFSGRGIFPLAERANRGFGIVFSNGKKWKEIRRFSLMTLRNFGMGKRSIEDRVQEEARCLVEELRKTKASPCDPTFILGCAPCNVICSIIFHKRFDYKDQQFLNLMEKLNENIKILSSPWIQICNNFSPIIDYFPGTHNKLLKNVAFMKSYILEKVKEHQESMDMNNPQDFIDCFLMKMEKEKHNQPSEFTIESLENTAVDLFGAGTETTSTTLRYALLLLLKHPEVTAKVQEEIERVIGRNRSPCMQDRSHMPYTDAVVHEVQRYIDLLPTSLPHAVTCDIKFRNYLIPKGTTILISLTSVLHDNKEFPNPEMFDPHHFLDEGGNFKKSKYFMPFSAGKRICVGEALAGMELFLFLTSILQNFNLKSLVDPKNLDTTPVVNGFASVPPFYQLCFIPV

Cytochrome P450 1A2 = target: T1, Cytochrome P450 1A2 (Homo sapiens, UniProt P05177); test: Inhibition of CYP1A2; type: ADME
T1 sequence (P05177 whole entry): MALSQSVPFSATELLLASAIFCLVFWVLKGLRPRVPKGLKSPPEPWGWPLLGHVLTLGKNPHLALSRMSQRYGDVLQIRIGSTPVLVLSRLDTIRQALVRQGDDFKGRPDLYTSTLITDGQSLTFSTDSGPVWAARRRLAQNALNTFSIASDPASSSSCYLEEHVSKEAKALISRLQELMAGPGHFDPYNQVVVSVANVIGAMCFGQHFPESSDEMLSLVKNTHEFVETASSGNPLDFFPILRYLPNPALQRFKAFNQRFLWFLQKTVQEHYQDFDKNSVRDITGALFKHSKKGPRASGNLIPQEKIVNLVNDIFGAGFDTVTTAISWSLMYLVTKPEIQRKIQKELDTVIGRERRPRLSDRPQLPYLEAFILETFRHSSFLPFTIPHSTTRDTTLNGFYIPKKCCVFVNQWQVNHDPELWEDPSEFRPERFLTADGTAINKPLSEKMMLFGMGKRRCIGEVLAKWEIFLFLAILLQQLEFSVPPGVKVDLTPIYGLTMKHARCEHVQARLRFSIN

[4] = Bioavailability in cynomolgus monkey at 1 mg/kg, iv and 1 mg/kg, po; type: ADME, organism-based, Macaca fascicularis; conditions: in vivo
[5] = Fraction unbound in rat; type: ADME
[6] = Fraction unbound in human; type: ADME
[7] = Tmax in human at 0.3 to 300 mg; type: ADME, organism-based; conditions: in vivo
[8] = Volume of distribution at steady state in dog at 1 mg/kg, iv and 1 mg/kg, po; type: ADME, organism-based, Canis lupus familiaris; conditions: in vivo, read-out: Vdss
[9] = AUC in cynomolgus monkey at 1 mg/kg, po; type: ADME, organism-based, Macaca fascicularis; set-up: dose 1 mg/kg, route oral; conditions: plasma
[10] = Half life in dog at 1 mg/kg, iv and 1 mg/kg, po; type: ADME, organism-based, Canis lupus familiaris; conditions: in vivo
in vivo [11] = conditions: Sprague-Dawley, rat, po, 5 mg/kg
Description: Cmax in Sprague-Dawley rat at 5 mg/kg, po

[12] = target: Voltage-gated inwardly rectifying potassium channel KCNH2 (Homo sapiens, UniProt Q12809); test: Inhibition of human ERG by patch-clamp technique
Voltage-gated inwardly rectifying potassium channel KCNH2, sequence (Q12809 whole entry): as the sequence (Q12809 whole entry) above

[13] = Half life in cynomolgus monkey at 1 mg/kg, iv and 1 mg/kg, po; type: ADME, organism-based, Macaca fascicularis; conditions: in vivo
[14] = Volume of distribution at steady state in Sprague-Dawley rat at 1 mg/kg, iv and 5 mg/kg, po; conditions: in vivo
[15] = Cmax in dog at 1 mg/kg, po; type: ADME, organism-based, Canis lupus familiaris; set-up: dose 1 mg/kg, route oral; conditions: in vivo
[16] = Fraction unbound in monkey; type: ADME, Macaca mulatta; conditions: rhesus monkey
[17] = Half life in Sprague-Dawley rat at 1 mg/kg, iv and 5 mg/kg, po; conditions: in vivo
Rattus norvegicus = species: Rattus norvegicus; test: Ex vivo inhibition of DPP4 in Sprague-Dawley rat; type: functional, organism-based
[18] = Bioavailability in Sprague-Dawley rat at 1 mg/kg, iv and 5 mg/kg, po; conditions: in vivo
Prolyl endopeptidase = target: T2, Prolyl endopeptidase (Homo sapiens, UniProt P48147); test: Inhibition of POP
T2 sequence (P48147 whole entry): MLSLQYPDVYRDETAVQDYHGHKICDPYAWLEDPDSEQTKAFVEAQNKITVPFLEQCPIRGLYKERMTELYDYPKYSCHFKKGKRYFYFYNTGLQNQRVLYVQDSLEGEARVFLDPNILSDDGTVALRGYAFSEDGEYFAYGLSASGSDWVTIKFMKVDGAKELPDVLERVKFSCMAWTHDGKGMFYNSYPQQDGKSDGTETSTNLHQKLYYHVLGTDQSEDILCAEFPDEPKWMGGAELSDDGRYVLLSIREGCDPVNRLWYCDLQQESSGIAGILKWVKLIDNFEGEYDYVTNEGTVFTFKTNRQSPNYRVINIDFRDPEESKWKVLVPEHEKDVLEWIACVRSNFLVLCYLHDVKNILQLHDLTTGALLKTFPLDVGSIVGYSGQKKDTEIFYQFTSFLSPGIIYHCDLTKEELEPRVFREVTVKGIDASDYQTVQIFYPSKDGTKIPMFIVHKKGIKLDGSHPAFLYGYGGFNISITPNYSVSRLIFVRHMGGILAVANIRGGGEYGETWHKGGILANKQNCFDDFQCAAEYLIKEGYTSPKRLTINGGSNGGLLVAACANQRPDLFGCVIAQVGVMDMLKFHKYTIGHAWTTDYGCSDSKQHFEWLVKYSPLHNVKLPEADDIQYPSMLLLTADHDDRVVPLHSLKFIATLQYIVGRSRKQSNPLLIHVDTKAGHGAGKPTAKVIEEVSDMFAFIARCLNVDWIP

in vivo [19] = conditions: Sprague-Dawley, rat, plasma, po, 5 mg/kg
Description: AUC in Sprague-Dawley rat at 5 mg/kg, po

[20] = Clearance in dog plasma at 1 mg/kg, iv and 1 mg/kg, po; type: ADME, organism-based, Canis lupus familiaris
[21] = Bioavailability in dog at 1 mg/kg, iv and 1 mg/kg, po; type: ADME, organism-based, Canis lupus familiaris; conditions: in vivo
[22] = Terminal half life in human at 0.3 to 300 mg; type: ADME, organism-based; conditions: in vivo, read-out: beta t1/2 (converted)
[23] = Clearance in Sprague-Dawley rat plasma at 1 mg/kg, iv and 5 mg/kg, po
[24] = Cmax in cynomolgus monkey at 1 mg/kg, po; type: ADME, organism-based, Macaca fascicularis; set-up: dose 1 mg/kg, route oral; conditions: in vivo
[25] = Volume of distribution at steady state in cynomolgus monkey at 1 mg/kg, iv and 1 mg/kg, po; type: ADME, organism-based, Macaca fascicularis; conditions: in vivo, read-out: Vdss
Dipeptidyl peptidase 3 = target: T3, Dipeptidyl peptidase 3 (Homo sapiens, UniProt Q9NY33); test: Inhibition of DPP3 in human erythrocytes; type: cell-based
T3 sequence (Q9NY33 whole entry): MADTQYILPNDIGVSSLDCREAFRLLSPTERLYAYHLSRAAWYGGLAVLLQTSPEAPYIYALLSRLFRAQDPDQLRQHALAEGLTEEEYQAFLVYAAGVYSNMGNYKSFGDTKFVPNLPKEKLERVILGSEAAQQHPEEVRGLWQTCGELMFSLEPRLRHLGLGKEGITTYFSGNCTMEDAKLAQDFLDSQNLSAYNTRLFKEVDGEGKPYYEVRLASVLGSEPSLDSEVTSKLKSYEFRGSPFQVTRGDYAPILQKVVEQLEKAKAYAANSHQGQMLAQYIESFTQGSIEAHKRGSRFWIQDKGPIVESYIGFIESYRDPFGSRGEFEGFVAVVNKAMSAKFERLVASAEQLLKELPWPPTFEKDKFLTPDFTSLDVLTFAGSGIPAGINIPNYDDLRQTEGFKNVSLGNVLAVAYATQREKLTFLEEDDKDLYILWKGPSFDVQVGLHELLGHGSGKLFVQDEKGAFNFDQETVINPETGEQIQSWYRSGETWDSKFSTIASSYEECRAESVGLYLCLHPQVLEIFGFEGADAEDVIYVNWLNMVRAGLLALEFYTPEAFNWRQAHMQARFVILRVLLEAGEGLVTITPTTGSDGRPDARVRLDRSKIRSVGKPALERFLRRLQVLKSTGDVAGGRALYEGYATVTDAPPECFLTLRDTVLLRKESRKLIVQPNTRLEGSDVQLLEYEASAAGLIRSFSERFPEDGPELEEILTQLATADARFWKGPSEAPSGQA

[26] = Fraction unbound in dog; type: ADME, Canis lupus familiaris
Cytochrome P450 2D6 = Cytochrome P450 2D6 (Homo sapiens, UniProt P10635); test: Inhibition of CYP2D6; type: ADME
Cytochrome P450 2D6, sequence (P10635 whole entry): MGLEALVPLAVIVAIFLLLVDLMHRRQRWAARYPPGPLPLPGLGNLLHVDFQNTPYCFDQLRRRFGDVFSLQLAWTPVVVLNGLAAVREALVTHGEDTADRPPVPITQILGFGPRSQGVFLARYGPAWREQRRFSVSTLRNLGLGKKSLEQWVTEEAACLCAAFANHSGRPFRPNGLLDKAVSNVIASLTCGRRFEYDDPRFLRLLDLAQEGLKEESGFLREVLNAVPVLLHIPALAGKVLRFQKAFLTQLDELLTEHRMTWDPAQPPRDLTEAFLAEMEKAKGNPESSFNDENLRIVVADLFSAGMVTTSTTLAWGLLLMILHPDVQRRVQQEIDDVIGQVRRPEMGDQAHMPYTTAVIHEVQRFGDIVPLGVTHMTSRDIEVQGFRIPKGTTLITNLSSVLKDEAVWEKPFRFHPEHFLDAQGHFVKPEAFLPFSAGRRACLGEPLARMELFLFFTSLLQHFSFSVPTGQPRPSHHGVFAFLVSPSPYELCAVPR

[27] = AUC in dog at 1 mg/kg, po; type: ADME, organism-based, Canis lupus familiaris; set-up: dose 1 mg/kg, route oral; conditions: plasma
Cytochrome P450 3A4 = Cytochrome P450 3A4 (Homo sapiens, UniProt P08684); test: Inhibition of CYP3A4; type: ADME
[28] = HEK293 cells that express human ERG, probe [3H]dofetilide

Dipeptidyl peptidase 8, sequence (Q6V1X1 whole entry): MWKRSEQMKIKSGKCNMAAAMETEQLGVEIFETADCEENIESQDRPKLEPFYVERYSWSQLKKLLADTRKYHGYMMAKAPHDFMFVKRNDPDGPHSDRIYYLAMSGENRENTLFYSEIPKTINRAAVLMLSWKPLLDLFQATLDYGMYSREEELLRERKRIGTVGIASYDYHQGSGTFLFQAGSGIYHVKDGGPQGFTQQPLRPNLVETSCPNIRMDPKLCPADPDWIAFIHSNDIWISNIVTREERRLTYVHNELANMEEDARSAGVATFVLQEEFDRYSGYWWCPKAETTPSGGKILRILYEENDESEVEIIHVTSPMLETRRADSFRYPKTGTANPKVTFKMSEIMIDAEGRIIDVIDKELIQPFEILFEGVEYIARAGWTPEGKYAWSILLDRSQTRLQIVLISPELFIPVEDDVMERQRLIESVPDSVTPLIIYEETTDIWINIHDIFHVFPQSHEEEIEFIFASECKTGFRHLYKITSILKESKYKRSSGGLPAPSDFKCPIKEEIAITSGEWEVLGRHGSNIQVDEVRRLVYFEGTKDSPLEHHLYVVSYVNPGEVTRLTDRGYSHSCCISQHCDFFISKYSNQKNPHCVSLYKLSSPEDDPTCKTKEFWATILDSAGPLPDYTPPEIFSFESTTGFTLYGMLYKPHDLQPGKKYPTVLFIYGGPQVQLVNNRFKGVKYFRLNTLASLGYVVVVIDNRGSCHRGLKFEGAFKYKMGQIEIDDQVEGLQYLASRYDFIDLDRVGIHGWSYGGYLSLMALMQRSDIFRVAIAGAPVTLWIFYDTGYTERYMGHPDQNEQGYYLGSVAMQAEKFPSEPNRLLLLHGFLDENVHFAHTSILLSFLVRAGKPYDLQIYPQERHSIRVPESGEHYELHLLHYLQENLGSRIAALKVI

Structure (SMILES): O=C([C@@H]1C[C@H](N2CCN(c3ncccn3)CC2)CN1)N1C[C@@H](F)[C@H](F)C1
inhibition at 10 µM (hERG (KCNH2); hek293): -1.6%

Structure (SMILES): O=C([C@@H]1C[C@H](N2CCN(c3noc4ccccc34)CC2)CN1)N1CCC(F)(F)C1
inhibition at 10 µM (hERG (KCNH2); [28]): 26.7% | Papp A→B [1]: 18.6 ×10⁻⁶ cm/s | Papp B→A [2]: 11.2 ×10⁻⁶ cm/s

Structure (SMILES): O=C([C@@H]1C[C@H](N2CCN(c3nc4cnccc4o3)CC2)CN1)N1CCC(F)(F)C1
inhibition at 10 µM (hERG (KCNH2); [28]): 8.1%

Structure (SMILES): O=C([C@@H]1C[C@H](N2CCN(c3nc4cccnc4o3)CC2)CN1)N1CCC(F)(F)C1
inhibition at 10 µM (hERG (KCNH2); [28]): 7.4%

Now from value to molecule, other results behind:

IC50 (Dipeptidyl peptidase 8): > 30 µM | IC50 (Dipeptidyl peptidase 2): > 30 µM
Structure (SMILES): O=C([C@@H]1C[C@H](N2CCN(c3ncccn3)CC2)CN1)N1CC(F)C1

IC50 (Cytochrome P450 2C19): > 30 µM | clearance [3]: 7.6 mL/min/kg | IC50 (Cytochrome P450 2C9): > 30 µM | IC50 (Cytochrome P450 1A2): > 30 µM | bioavailability [4]: 71% | fraction unbound [5]: 0.8 | fraction unbound [6]: 0.8 | Tmax [7]: 0.5 h | Vd [8]: 0.7 L/kg | AUC [9]: 843 ng·h/mL | half-life [10]: 7.6 h | Cmax (in vivo [11]): 1410 ng/mL | half-life [13]: 7.6 h | Vd [14]: 1.9 L/kg | Cmax [15]: 1530 ng/mL | fraction unbound [16]: 0.8 | half-life [17]: 2.5 h | IC50 (Rattus norvegicus): 1.3 ng/mL (≈ 3.55 nM) | bioavailability [18]: 109% | IC50 (Prolyl endopeptidase): > 30 µM | AUC (in vivo [19]): 2400 ng·h/mL | clearance [20]: 3.7 mL/min/kg | bioavailability [21]: 95% | half-life [22]: 15.1 h | clearance [23]: 38 mL/min/kg | Cmax [24]: 517 ng/mL | Vd [25]: 1 L/kg | IC50 (Dipeptidyl peptidase 3): > 30 µM | fraction unbound [26]: 0.8 | IC50 (Cytochrome P450 2D6): > 30 µM | AUC [27]: 7160 ng·h/mL | IC50 (Cytochrome P450 3A4): > 30 µM
Structure (SMILES): O=C([C@@H]1C[C@H](N2CCN(c3ncccn3)CC2)CN1)N1CCC(F)(F)C1 [GOSOGLIPTIN]
inhibition at 10 µM (hERG (KCNH2); hek293): 14.9% | IC50 [12]: 126 µM | Emax (Rattus norvegicus): 98%

Cmax (in vivo [11]): 1820 ng/mL | Vd [14]: 1.9 L/kg | half-life [17]: 2.3 h | bioavailability [18]: 93% | AUC (in vivo [19]): 3950 ng·h/mL | clearance [23]: 27 mL/min/kg
Structure (SMILES): O=C([C@@H]1C[C@H](N2CCN(c3ncccn3)CC2)CN1)N1C[C@@H](F)[C@@H](F)C1
inhibition at 10 µM (hERG (KCNH2); hek293): 7.2% | IC50 [12]: 54 µM

Cmax (in vivo [11]): 237 ng/mL | Vd [14]: 1.8 L/kg | half-life [17]: 1.5 h | Papp A→B [1]: 10.4 ×10⁻⁶ cm/s | bioavailability [18]: 20% | AUC (in vivo [19]): 276 ng·h/mL | Papp B→A [2]: 13.5 ×10⁻⁶ cm/s | clearance [23]: 61 mL/min/kg
Structure (SMILES): N#Cc1cccnc1N1CCN([C@@H]2CN[C@H](C(=O)N3CCC(F)(F)C3)C2)CC1
inhibition at 10 µM (hERG (KCNH2); [28]): -7.3% | IC50 [12]: > 10 µM

Source: ChEMBL document CHEMBL1138584, “(3,3-Difluoro-pyrrolidin-1-yl)-[(2S,4S)-(4-(4-pyrimidin-2-yl-piperazin-1-yl)-pyrrolidin-2-yl]-methanone: a potent, selective, orally active dipeptidyl peptidase IV inhibitor” (Bioorg Med Chem Lett, 2009)
